Reference: ChEMBL document CHEMBL3259654, “Dihydrothiophene-condensed chromones from a marine-derived fungus Penicillium oxalicum and their structure-bioactivity relationship” (Bioorg Med Chem Lett, 2014)

Experiments:
[1] = Cytotoxicity against human BGC823 cells by MTT assay; assay type: functional, cell-based; conditions: BGC-823
MOLT-4 = assay: Cytotoxicity against human MOLT4 cells by MTT assay; assay type: functional, cell-based
[2] = Retention time of the compound by HPLC analysis; assay type: physicochemical
NCI-H1975 = assay: Cytotoxicity against human NCI-H1975 cells by MTT assay; assay type: functional, cell-based
U-937 = assay: Cytotoxicity against human U937 cells by MTT assay; assay type: functional, cell-based
K562 = assay: Cytotoxicity against human K562 cells by MTT assay; assay type: functional, cell-based
MCF7 = assay: Cytotoxicity against human MCF7 cells by MTT assay; assay type: functional, cell-based
HL-60 = assay: Cytotoxicity against human HL60 cells by MTT assay; assay type: functional, cell-based
[3] = Cytotoxicity against human HuH7 cells by MTT assay; assay type: functional, cell-based; conditions: Huh-7

`COC(=O)[C@@](O)(C[C@@H](O)C(=O)O)[C@@H]1Cc2c(oc3cc(C)cc(O)c3c2=O)S1` showed an IC50 [1] of 10.1 µM, an IC50 (MOLT-4) of 5.74 µM and a Retention_time [2] of 23.144 min.

For `COC(=O)C[C@](O)(C(=O)OC)[C@@H]1Cc2c(oc3cc(C)cc(O)c3c2=O)S1`, the IC50 (NCI-H1975) was 5.45 µM, the IC50 (U-937) was 4.16 µM and the IC50 (K562) was 8.8 µM. It also gave an IC50 [1] of 1.96 µM, an IC50 (MOLT-4) of 1.36 µM and an IC50 (MCF7) of 4.32 µM. The IC50 (HL-60) was 2.96 µM and the IC50 [3] was 6.33 µM.

Work on `COC(=O)[C@H](O)C[C@](O)(C(=O)OC)[C@@H]1Cc2c(oc3cc(C)cc(O)c3c2=O)S1` yielded an IC50 (NCI-H1975) of 10.4 µM, an IC50 (U-937) of 2.35 µM and an IC50 (K562) of 4.53 µM. It also gave an IC50 [1] of 4.89 µM, an IC50 (MOLT-4) of 0.3 µM and an IC50 (MCF7) of 11.3 µM. For the same molecule, the IC50 (HL-60) was 2.55 µM, the IC50 [3] was 9.49 µM and the Retention_time [2] was 24.796 min.

`COC(=O)[C@H](O)C[C@](O)(C(=O)OC)[C@H]1Cc2c(oc3cc(C)cc(O)c3c2=O)S1` gave an IC50 (U-937) of 5 µM, an IC50 (MOLT-4) of 2.3 µM and an IC50 (HL-60) of 6.41 µM.

Work on `COC(=O)[C@@H](C[C@](O)(C(=O)OC)[C@@H]1Cc2c(oc3cc(C)cc(O)c3c2=O)S1)OC(=O)[C@](OC)(c1ccccc1)C(F)(F)F` yielded an IC50 (U-937) of 9.85 µM, an IC50 [1] of 8.82 µM and an IC50 (MOLT-4) of 5.89 µM.

Work on `COC(=O)[C@@H](C[C@](O)(C(=O)OC)[C@@H]1Cc2c(oc3cc(C)cc(O)c3c2=O)S1)OC(=O)[C@@](OC)(c1ccccc1)C(F)(F)F` yielded an IC50 (U-937) of 9.04 µM, an IC50 (K562) of 1.34 µM and an IC50 [1] of 5.53 µM. It also gave an IC50 (MOLT-4) of 4.81 µM and an IC50 (HL-60) of 7.54 µM.

Molecule `COC(=O)[C@@H](C[C@](O)(C(=O)OC)[C@@H]1Cc2c(oc3cc(C)cc(O)c3c2=O)S1)OC(=O)c1ccc([N+](=O)[O-])cc1` has an IC50 (NCI-H1975) of 6.97 µM, an IC50 (U-937) of 6.37 µM and an IC50 (K562) of 9.68 µM. It also gave an IC50 [1] of 8.01 µM, an IC50 (MOLT-4) of 3.66 µM and an IC50 (MCF7) of 7.37 µM. For the same molecule, the IC50 (HL-60) was 3.96 µM and the IC50 [3] was 6 µM.

With `COC(=O)[C@@H](C[C@](O)(C(=O)OC)[C@@H]1Cc2c(oc3cc(C)cc(OC(=O)c4ccc([N+](=O)[O-])cc4)c3c2=O)S1)OC(=O)c1ccc([N+](=O)[O-])cc1` the IC50 (U-937) was 6.34 µM, the IC50 (K562) was 1.04 µM and the IC50 [1] was 4.49 µM. For the same molecule, the IC50 (MOLT-4) was 2.96 µM, the IC50 (MCF7) was 6.05 µM and the IC50 (HL-60) was 3.09 µM. For the same molecule, the IC50 [3] was 8.77 µM.

For `COC(=O)[C@@H](C[C@](O)(C(=O)OC)[C@@H]1Cc2c(oc3cc(C)cc(O)c3c2=O)S1)OC(=O)c1cc(C(F)(F)F)cc(C(F)(F)F)c1`, the IC50 (NCI-H1975) was 2.33 µM, the IC50 (U-937) was 4.06 µM and the IC50 (K562) was 6.9 µM. For the same molecule, the IC50 [1] was 3.95 µM, the IC50 (MOLT-4) was 3.02 µM and the IC50 (MCF7) was 6.94 µM. For the same molecule, the IC50 (HL-60) was 3.79 µM.

Molecule `COC(=O)[C@@H](C[C@](OC(=O)c1cc(C(F)(F)F)cc(C(F)(F)F)c1)(C(=O)OC)[C@@H]1Cc2c(oc3cc(C)cc(OC(=O)c4cc(C(F)(F)F)cc(C(F)(F)F)c4)c3c2=O)S1)OC(=O)c1cc(C(F)(F)F)cc(C(F)(F)F)c1` has an IC50 (U-937) of 7.2 µM.

With `COC(=O)[C@@H](C[C@](O)(C(=O)OC)[C@@H]1Cc2c(oc3cc(C)cc(OC(=O)c4ccccc4)c3c2=O)S1)OC(=O)c1ccccc1` the IC50 (MOLT-4) was 3.99 µM and the IC50 (HL-60) was 4.46 µM.

In the case of `COC(=O)[C@@H](C[C@](O)(C(=O)OC)[C@H]1Cc2c(oc3cc(C)cc(O)c3c2=O)S1)OC(=O)[C@@](OC)(c1ccccc1)C(F)(F)F`, the IC50 [1] is reported as 8.81 µM, the IC50 (MOLT-4) is reported as 6.03 µM and the IC50 (HL-60) is reported as 9.14 µM.
